{"source": "patent US9062072B2", "about": "“Inhibitors of HIF and angiogenesis” (Emory University, priority 2010, dated 2015)", "tested_on": "HIF-1-mediated transcription", "test": "HIF-1-mediated transcription under hypoxia, LN229-HRE-Lux luciferase reporter assay", "type": "cell-based, human", "details": "LN229-HRE-Lux cells, hypoxia (1% O2)", "method": "The synthesized analogues were evaluated for their potential to inhibit HIF-1-mediated transcription under hypoxia (1% O2) using a human glioma cell line LN229-HRE-Lux, which stably expresses a hypoxia-responsive luciferase reporter gene (Table 1-9). […] The compounds were tested in single (n=1) or multiple (n>1) independent experiments each carried out in quadruplicate.\nLN229-HRE-luciferase human glioblastoma cells were used to perform the assay. […] 48-well plates were seeded with 3.10^4 cells per well and incubated under normoxic conditions for 24 h. Cells were then pre-treated with different concentrations of KCN-1 or its analogues for 1 h and then transferred to hypoxic conditions. After 24 h, media was aspirated, cells were lysed and reporter activity was measured in the lysate using Luciferase Assay System (Promega, Madison, Wis.) with 20/20^n Luminometer (Promega).", "key": {"[1]": {"details": "Homo sapiens, 24 h, Table 1, 24 h, read-out: IC50"}, "[2]": {"details": "Homo sapiens, 24 h, 24 h, read-out: IC50"}, "[3]": {"details": "Homo sapiens, 24 h, Table 2, 24 h, read-out: IC50"}, "[4]": {"details": "Homo sapiens, 24 h, Table 3, 24 h, read-out: IC50"}, "[5]": {"details": "Homo sapiens, 24 h, Table 4, 24 h, read-out: IC50"}, "[6]": {"details": "Homo sapiens, 24 h, Table 5, 24 h, read-out: IC50"}, "[7]": {"details": "Homo sapiens, 24 h, Table 6, 24 h, read-out: IC50"}, "[8]": {"details": "Homo sapiens, 24 h, Table 7, 24 h, results from single runs, read-out: IC50"}}, "note": "Like-named read-outs stand apart in the source and are kept apart here.", "data": [{"smiles": "COc1ccc(NCc2ccc3c(c2)C=CC(C)(C)O3)cc1OC", "note": "[Compound 2a, (3,4-Dimethoxy-phenyl)-(2,2-dimethyl-2H-chromen-6-ylmethyl)-amine]", "values": [{"measurement": "IC50", "setting": "[1]", "value": 3, "unit": "µM"}]}, {"smiles": "Cc1ccc(NCc2ccc3c(c2)C=CC(C)(C)O3)c(C)c1", "note": "[Compound 2c, (2,2-Dimethyl-2H-chromen-6-ylmethyl)-(2,4-dimethyl-phenyl)-amine]", "values": [{"measurement": "IC50", "setting": "[1]", "value": "> 25", "unit": "µM"}]}, {"smiles": "CC1(C)C=Cc2cc(CNc3ccc(C(=O)O)cc3)ccc2O1", "note": "[Compound 2d, 4-[(2,2-Dimethyl-2H-chromen-6-ylmethyl)-amino]-benzoic acid]", "values": [{"measurement": "IC50", "setting": "[1]", "value": "> 25", "unit": "µM"}]}, {"smiles": "CC1(C)C=Cc2cc(CNc3ccccc3Br)ccc2O1", "note": "[Compound 2e, (2-Bromo-phenyl)-(2,2-dimethyl-2H-chromen-6-ylmethyl)-amine]", "values": [{"measurement": "IC50", "setting": "[1]", "value": "> 25", "unit": "µM"}]}, {"smiles": "CC1(C)C=Cc2cc(CNc3ccccc3F)ccc2O1", "note": "[Compound 2f, (2,2-Dimethyl-2H-chromen-6-ylmethyl)-(2-fluoro-phenyl)-amine]", "values": [{"measurement": "IC50", "setting": "[1]", "value": "> 25", "unit": "µM"}]}, {"smiles": "COc1ccc(N(C)Cc2ccc3c(c2)C=CC(C)(C)O3)cc1OC", "note": "[Compound 3a, (3,4-Dimethoxy-phenyl)-(2,2-dimethyl-2H-chromen-6-ylmethyl)-methylamine]", "values": [{"measurement": "IC50", "setting": "[1]", "value": 5, "unit": "µM"}]}, {"smiles": "CN(Cc1ccc2c(c1)C=CC(C)(C)O2)c1ccccn1", "note": "[Compound 3b, (2,2-Dimethyl-2H-chromen-6-ylmethyl)-methyl-pyridin-2-yl-amine]", "values": [{"measurement": "IC50", "setting": "[1]", "value": 8.4, "unit": "µM"}]}, {"smiles": "Cc1ccc(N(C)Cc2ccc3c(c2)C=CC(C)(C)O3)c(C)c1", "note": "[Compound 3c, (2,2-Dimethyl-2H-chromen-6-ylmethyl)-(2,4-dimethyl-phenyl)-methyl-amine]", "values": [{"measurement": "IC50", "setting": "[1]", "value": 2.6, "unit": "µM"}, {"measurement": "IC50", "setting": "[2]", "value": 2.6, "unit": "µM"}]}, {"smiles": "COc1ccc(S(=O)(=O)N(Cc2ccc3c(c2)C=CC(C)(C)O3)C(C)C)cc1OC", "note": "[Compound 5a, N-(2,2-Dimethyl-2H-chromen-6-ylmethyl)-N-isopropyl-3,4-dimethoxy-benzenesulfonamide]", "values": [{"measurement": "IC50", "setting": "[3]", "value": 3.1, "unit": "µM"}]}, {"smiles": "C#CCN(Cc1ccc2c(c1)C=CC(C)(C)O2)S(=O)(=O)c1ccc(OC)c(OC)c1", "note": "[Compound 5b, N-(2,2-Dimethyl-2H-chromen-6-ylmethyl)-3,4-dimethoxy-N-prop-2-ynyl-benzenesulfonamide]", "values": [{"measurement": "IC50", "setting": "[3]", "value": 1.3, "unit": "µM"}, {"measurement": "IC50", "setting": "[2]", "value": 1.3, "unit": "µM"}]}, {"smiles": "CCCCN(Cc1ccc2c(c1)C=CC(C)(C)O2)S(=O)(=O)c1ccc(OC)c(OC)c1", "note": "[Compound 5c, N-Butyl-N-(2,2-dimethyl-2H-chromen-6-ylmethyl)-3,4-dimethoxy-benzenesulfonamide]", "values": [{"measurement": "IC50", "setting": "[3]", "value": 3.3, "unit": "µM"}, {"measurement": "IC50", "setting": "[2]", "value": 3.3, "unit": "µM"}]}, {"smiles": "COc1ccc(S(=O)(=O)N(Cc2ccc3c(c2)C=CC(C)(C)O3)C(C)(C)C)cc1OC", "note": "[Compound 5d, N-tert-Butyl-N-(2,2-dimethyl-2H-chromen-6-ylmethyl)-3,4-dimethoxy-benzenesulfonamide]", "values": [{"measurement": "IC50", "setting": "[3]", "value": 3.5, "unit": "µM"}, {"measurement": "IC50", "setting": "[2]", "value": 3.5, "unit": "µM"}]}, {"smiles": "C=CCN(Cc1ccc2c(c1)C=CC(C)(C)O2)S(=O)(=O)c1ccc(OC)c(OC)c1", "note": "[Compound 5e, N-Allyl-N-(2,2-dimethyl-2H-chromen-6-ylmethyl)-3,4-dimethoxy-benzenesulfonamide]", "values": [{"measurement": "IC50", "setting": "[3]", "value": 3.4, "unit": "µM"}]}, {"smiles": "COc1ccc(S(=O)(=O)N(CCC(C)C)Cc2ccc3c(c2)C=CC(C)(C)O3)cc1OC", "note": "[Compound 5f, N-(2,2-Dimethyl-2H-chromen-6-ylmethyl)-3,4-dimethoxy-N-(3-methyl-butyl)-benzenesulfonamide]", "values": [{"measurement": "IC50", "setting": "[3]", "value": 1.6, "unit": "µM"}]}, {"smiles": "COc1ccc(S(=O)(=O)N(Cc2ccc3c(c2)C=CC(C)(C)O3)C2CCCC2)cc1OC", "note": "[Compound 5g, N-Cyclopentyl-N-(2,2-dimethyl-2H-chromen-6-ylmethyl)-3,4-dimethoxy-benzenesulfonamide]", "values": [{"measurement": "IC50", "setting": "[3]", "value": 0.5, "unit": "µM"}, {"measurement": "IC50", "setting": "[2]", "value": 1.6, "unit": "µM"}]}, {"smiles": "COc1ccc(S(=O)(=O)N(Cc2ccc3c(c2)C=CC(C)(C)O3)C2CC2)cc1OC", "note": "[Compound 5h, Cyclopropyl-N-(2,2-dimethyl-2H-chromen-6-ylmethyl)-3,4-dimethoxy-benzenesulfonamide]", "values": [{"measurement": "IC50", "setting": "Table 2, 24 h, read-out: IC50", "value": 1.5, "unit": "µM"}]}, {"smiles": "COc1ccc(S(=O)(=O)N(Cc2ccc3c(c2)C=CC(C)(C)O3)C2CCCCC2)cc1OC", "note": "[Compound 5i, N-Cyclohexyl-N-(2,2-dimethyl-2H-chromen-6-ylmethyl)-3,4-dimethoxy-benzenesulfonamide]", "values": [{"measurement": "IC50", "setting": "[3]", "value": 4, "unit": "µM"}]}, {"smiles": "COc1ccc(S(=O)(=O)N(Cc2ccc3c(c2)C=CC(C)(C)O3)c2ccccc2)cc1", "note": "[Compound 5j, N-((2,2-Dimethyl-2H-chromen-6-yl)methyl)-4-methoxy-N-phenylbenzenesulfonamide]", "values": [{"measurement": "IC50", "setting": "[4]", "value": 0.6, "unit": "µM"}]}, {"smiles": "Cc1cc(C)cc(S(=O)(=O)N(Cc2ccc3c(c2)C=CC(C)(C)O3)c2ccccc2)c1", "note": "[Compound 5k, N-((2,2-Dimethyl-2H-chromen-6-yl)methyl)-3,5-dimethyl-N-phenylbenzenesulfonamide]", "values": [{"measurement": "IC50", "setting": "[4]", "value": 0.5, "unit": "µM"}, {"measurement": "IC50", "setting": "[2]", "value": 0.6, "unit": "µM"}]}, {"smiles": "CC1(C)C=Cc2cc(CN(c3ccccc3)S(=O)(=O)c3cc(Cl)ccc3Cl)ccc2O1", "note": "[Compound 5l, 2,5-Dichloro-N-((2,2-dimethyl-2H-chromen-6-yl)methyl)-N-phenylbenzenesulfonamide]", "values": [{"measurement": "IC50", "setting": "[4]", "value": 2.1, "unit": "µM"}]}, {"smiles": "CC1(C)C=Cc2cc(CN(c3ccccc3)S(=O)(=O)c3ccc(Br)cc3OC(F)(F)F)ccc2O1", "note": "[Compound 5m, 4,4-Bromo-N-((2,2-dimethyl-2H-chromen-6-yl)methyl)-N-phenyl-2-(trifluoromethoxy)benzenesulfonamide]", "values": [{"measurement": "IC50", "setting": "[4]", "value": "> 25", "unit": "µM"}]}, {"smiles": "CCC1(C)C=Cc2cc(CN(c3ccccc3)S(=O)(=O)c3ccc(OC)c(OC)c3)ccc2O1", "note": "(stereo not shown) [Compound 10, N-((2-Ethyl-2-methyl-2H-chromen-6-yl)methyl)-3,4-dimethoxy-N-phenylbenzenesulfonamide]", "values": [{"measurement": "IC50", "setting": "[5]", "value": 3.1, "unit": "µM"}, {"measurement": "IC50", "setting": "[2]", "value": 2.2, "unit": "µM"}]}, {"smiles": "COc1ccc(S(=O)(=O)N(Cc2cnc3ccccc3c2)c2ccccc2)cc1OC", "note": "[Compound 13, 3,4-Dimethoxy-N-phenyl-N-(quinolin-3-ylmethyl)benzenesulfonamide]", "values": [{"measurement": "IC50", "setting": "[5]", "value": 1.3, "unit": "µM"}, {"measurement": "IC50", "setting": "[2]", "value": 3.5, "unit": "µM"}]}, {"smiles": "COc1ccc(S(=O)(=O)N(Cc2ccc3c(c2)CC(C)(C)O3)c2ccccc2)cc1OC", "note": "[Compound 16a, N-((2,2-Dimethyl-2,3-dihydrobenzofuran-5-yl)methyl)-3,4-dimethoxy-N-phenylbenzenesulfonamide]", "values": [{"measurement": "IC50", "setting": "[6]", "value": 0.5, "unit": "µM"}]}, {"smiles": "COc1ccc(S(=O)(=O)N(Cc2ccc3c(c2)CC(C)(C)O3)C2CCCCCC2)cc1OC", "note": "[Compound 16b, N-Cycloheptyl-N-((2,2-dimethyl-2,3-dihydrobenzofuran-5-yl)methyl)-3,4dimethoxybenzenesulfonamide]", "values": [{"measurement": "IC50", "setting": "[6]", "value": 9.1, "unit": "µM"}, {"measurement": "IC50", "setting": "[2]", "value": 9.1, "unit": "µM"}]}, {"smiles": "COc1ccc(S(=O)(=O)N(Cc2ccc3c(c2)CC(C)(C)O3)C(C)C)cc1OC", "note": "[Compound 16c, N-((2,2-dimethyl-2,3-dihydrobenzofuran-5-yl)methyl)-N-isopropyl-3,4-dimethoxybenzenesulfonamide]", "values": [{"measurement": "IC50", "setting": "[6]", "value": 1.5, "unit": "µM"}]}, {"smiles": "CCCCN(Cc1ccc2c(c1)CC(C)(C)O2)S(=O)(=O)c1ccc(OC)c(OC)c1", "note": "[Compound 16d, N-Butyl-N-((2,2-dimethyl-2,3-dihydrobenzofuran-5-yl)methyl)-3,4-dimethoxybenzenesulfonamide]", "values": [{"measurement": "IC50", "setting": "[6]", "value": 0.6, "unit": "µM"}]}, {"smiles": "COc1ccc(S(=O)(=O)N(Cc2ccc3c(c2)CC(C)(C)O3)C2CCCCC2)cc1OC", "note": "[Compound 16e, N-Cyclohexyl-N-((2,2-dimethyl-2,3-dihydrobenzofuran-5-yl)methyl)-3,4-dimethoxybenzenesulfonamide]", "values": [{"measurement": "IC50", "setting": "Homo sapiens, 24 h, Table 5", "value": 8.2, "unit": "µM"}, {"measurement": "IC50", "setting": "Homo sapiens, 24 h", "value": 8.2, "unit": "µM"}]}, {"smiles": "COc1ccc(S(=O)(=O)N(Cc2ccc3c(c2)CC(C)(C)O3)C2CCCC2)cc1OC", "note": "[Compound 16f, N-Cyclopentyl-N-((2,2-dimethyl-2,3-dihydrobenzofuran-5-yl)methyl)-3,4-dimethoxybenzenesulfonamide]", "values": [{"measurement": "IC50", "setting": "[6]", "value": 0.4, "unit": "µM"}, {"measurement": "IC50", "setting": "[2]", "value": 0.4, "unit": "µM"}]}, {"smiles": "COc1ccc(S(=O)(=O)N(Cc2cnc3c(c2)C=CC(C)(C)O3)c2ccccc2)cc1OC", "note": "[Compound 20a, N-((2,2-Dimethyl-2H-pyrano[2,3-b]pyridin-6-yl)methyl)-3,4-dimethoxy-N-phenylbenzenesulfonamide]", "values": [{"measurement": "IC50", "setting": "[7]", "value": 2.5, "unit": "µM"}, {"measurement": "IC50", "setting": "[2]", "value": 2.5, "unit": "µM"}]}, {"smiles": "COc1ccc(S(=O)(=O)N(Cc2cnc3c(c2)C=CC(C)(C)O3)C2CCCCC2)cc1OC", "note": "[Compound 20b, N-Cyclohexyl-N-((2,2-dimethyl-2H-pyrano[2,3-b]pyridin-6-yl)methyl)-3,4-dimethoxybenzenesulfonamide]", "values": [{"measurement": "IC50", "setting": "[7]", "value": "> 25", "unit": "µM"}]}, {"smiles": "COc1ccc(S(=O)(=O)N(Cc2ccc3c(n2)C=CC(C)(C)O3)c2ccccc2)cc1OC", "note": "[Compound 26a, N-((2,2-dimethyl-2H-pyrano[3,2-b]pyridin-6-yl)methyl)-3,4-dimethoxy-N-phenylbenzenesulfonamide]", "values": [{"measurement": "IC50", "setting": "[8]", "value": 1.3, "unit": "µM"}, {"measurement": "IC50", "setting": "Homo sapiens, unit inferred, read-out: IC50", "value": 1.3, "unit": "µM"}]}, {"smiles": "CCCCN(Cc1ccc2c(n1)C=CC(C)(C)O2)S(=O)(=O)c1ccc(OC)c(OC)c1", "note": "[Compound 26b, N-Butyl-N-((2,2-dimethyl-2H-pyrano[3,2-b]pyridin-6-yl)methyl)-3,4-dimethoxybenzenesulfonamide]", "values": [{"measurement": "IC50", "setting": "[8]", "value": 0.9, "unit": "µM"}]}]}
